# US11479770B2, “Use of p38 inhibitors to reduce expression of DUX4” (Fulcrum Therapeutics, Inc., priority 2017, dated 2022)
# Columns and labels:
# Type in all cases: cell-based, human
# myogenin (MYOG) mRNA = assay: MYOG mRNA expression (qPCR) in FSHD myotubes; conditions: multiple concentrations
# Procedure: (§1) On day 0, the media was changed to differentiation media. Plates were removed from the incubator and the growth medium was aspirated, plates were washed once with PBS, 100 μL, for 96-wells and 1 mL for a 6-well plate, 100 μL, or 2 mL of differentiation medium was added per well, 96- or 6-well respectively. Antisense oligonucleotides or drug were added at the desired concentration, and the plates were put back in the incubator and incubated for 3-4 days.
# (§2) Cells were removed from the incubator and media aspirated. Cells were quickly lysed following one of the following protocols: for lysis in 96-well plates, direct lysis and one-step RT-Preamp qPCR was performed according to the protocol described below. For each 96-well, a mix containing: 19.5 μL Roche Realtime Ready lysis buffer, 0.25 μL RNAse inhibitor, 0.25 μL DNAseI (from Thermo not the included one in the kit) was prepared. 20 μL of the mix was added to each well, mixed 5 times, and incubated 5 minutes at RT or alternatively shaken vigorously for 15 minutes. Lysis was observed under the microscope. Samples were frozen −80° C. at least for 15 minutes.
# For qPCR, cell lysate was diluted 1:10, and 2 μL was used for a 10 μL 1-step RT-qPCR reaction for detection of GAPDH, RPLPO, TBP, MYOG, FRG1, MYH3, ACTN2, etc. Per 10 μL reaction, the reaction mix included: 2 μL of RNA (1:10 dilution lysate), 5 μL of Fast Advanced Taqman Master Mix (2×), 0.25 μL of RT enzyme mix (40×), 0.5 μL of Taqman probe set (20×), and 2.25 μL of H2O. The following reaction protocol was run on the QuantStudio 7: 48° C. for 15 min, 50° C. for 2 min, 95° C. for 30 sec, 40×, 95° C. for 5 sec, 60° C. for 30 sec, after which the plates were read as specified by the manufacturer (Thermo).
# (§3) Wild type myotubes and mature patient-derived FSHD myotubes that express DUX4 protein were treated with DMSO vehicle control or multiple concentrations of various p38α/β inhibitors with different ranges of isoform and kinome selectivity, including SB239063 (FIG. 4A), VX-702 (FIG. 4B), Pamapimod (FIG. 4C), and TAK-715 (FIG. 4D). After treatment, the control and treated cells were processed for realtime PCR quantification of MBD3L2 mRNA (DUX4 downstream gene) and myogenin (MYOG) mRNA (control) expression.
# active Caspase-3 = assay: Apoptosis by active Caspase-3 in FSHD myotubes; conditions: 1 μM; to level similar to healthy control line
# Procedure: Briefly, cells were fixed in 4% paraformaldehyde and permeabilized in […] for 10 min at room temperature. Cells were permeabilized with PBST (1× PBS solution with 0.1% Triton X-100) before blocking with 10% Normal Donkey Serum or 3% BSA (NDS) in PBST. Cells were then incubated with appropriately diluted primary antibodies in PBST with 5% NDS for 1 hours at room temperature or 12 hours at 4° C., washed with PBST for 3 times at room temperature, and then incubated with desired secondary antibodies in TBST with 5% NDS and DAPI to counterstain the nuclei. DUX4 was detected by immunocytochemistry using the E5-5 antibody in differentiated FSHD myotubes. Activated Caspase-3 was detected using a commercially available antibody (https://www.cellsignal.com/products/primary-antibodies/cleaved-caspase-3-asp175-antibody/9661).
# Apoptosis was measured by active Caspase-3 levels in FSHD myotubes in vitro as described in Materials and Methods. Apoptosis was detected in a sporadic manner in a subset of myotubes in culture as shown by the white circles and magnified region in FIG. 9A. Active Caspase-3 signal was quantified in FSHD myotubes that had been treated with FTX-1821 at different concentrations (FIG. 9B). […] No change in active Caspase-3 signal was observed following DMSO treatment. […]
# [1] = tested on: MBD3L2 mRNA (DUX4 downstream gene); assay: MBD3L2 mRNA expression (qPCR) in FSHD myotubes
# Procedure: as §1, §2
# 1-step RT-Preamplification was used for detection of DUX4 downstream genes, i.e., MBD3L2, ZSCAN4, LEUTX, TRIM43, KHDC1L, and POL2RA-VIC was used as endogenous control. Per 10 μL reaction, the reaction mix included: 2.25 μL of RNA (1:10 dilution lysate), 5 μL of Taqman Pre-Amp Master Mix (2×), 0.25 μL of RT enzyme mix (40×), 2.5 μL of Taqman probe set (0.2×)*. * For pooling the TaqMan Assays, equal volumes of each 20× TaqMan® Gene Expression Assay were used, and up to 100 assays were combined. For example, to pool 50 TaqMan assays, 10 μL of each assay were combined in a microcentrifuge tube. The pooled TaqMan assays were diluted using 1× TE buffer so that each assay was at a final concentration of 0.2×. For the above example, 500 μL of 1× TE buffer was added to the pooled TaqMan assays for a total final volume of 1 mL. The QuantStudio7 protocol was used at 48° C. 15 min, 95° C. 10 min, 10 cycles: 95° C. 15 sec, 60° C. 4 min, and 4° C. infinite Samples were then diluted to 50 μL and continued with the qPCR step. Per 10 μL reaction, the reaction mix included: 2 μL of Preamp dilution, 5 μL of Fast Advanced Taqman Master Mix (2×), 0.5 μL of Taqman probe set (20×), and 2.5 μL of H2O. When multiplexing, the volume was adjusted to 10 μL total. The following program was run on the QuantStudio7: 50° C. for 2 min, 95° C. for 30 sec, 40×, 95° C. for 5 sec, 60° C. for 30 sec, and plates were read as per the manufacturers specifications (Thermo).
# as §3
# [2] = tested on: ZSCAN4, TRIM43, MBD3L2, LEUTX, and KHDC1L; assay: DUX4-regulated downstream gene expression (real time PCR) in FSHD myotubes; conditions: 1 μM ASO
# Procedure: Wild type myotubes were treated with DMSO control vehicle, and mature patient-derived FSHD myotubes that express DUX4 protein were treated with DMSO vehicle control or 1 μM of a DUX4 sequence-directed antisense oligonucleotide (ASO; FTX-2) purchased from Exiqon. After treatment, the myotubes were lysed in 19.5 μL of Roche Real Time Ready Lysis Buffer, 0.25 μL of DNAse1 (Ambion, AM2222), 0.25 μL of Protector RNase Inhibitor (Roche, 3335402001), and the RNA was collected in an RNeasy Micro Kit Master Mix. Expression levels of DUX4-regulated downstream genes (ZSCAN4, TRIM43, MBD3L2, LEUTX, and KHDC1L) was determined by real time PCR (ThermoFisher Scientific, 4484262), ZSCAN4 Taqman Assay (ThermoFisher Scientific, Hs00537549_m1, FAM-MGB), MYOG Taqman Assay (ThermoFisher Scientific, Hs01072232_m1, JUN-QSY), RPLPO Taqman Assay (ThermoFisher Scientific, Hs99999902_m1), and/or LEUTX Taqman Assay (ThermoFisher Scientific, Hs00418470_m1). Ct values were extracted from QuantStudio Realtime PCR software, and Genedata was used to calculate relative levels of expression using POLR2A as a housekeeping gene.
# DUX4-fl mRNA = assay: DUX4 / DUX4-fl mRNA expression in FSHD myotubes
# Procedure: cDNA preparation. 10 μL reactions included 1 μL of RNA (1 μg), 0.5 μL of Oligo dT, 0.5 μL of 10 mM dNTPs, and 4.5 μL of H2O. Reaction samples were incubated at 65° C. for 2 min and quickly moved to ice and held at least 1 min before adding the enzyme mix, which included 2 μL of 5× First strand Buffer, 0.5 μL of 0.1M DTT, 0.5 μL of RNAse inhibitor, 0.5 μL of SSIV RT. The samples were incubated at 55° C. for 20 min and 80° C. for 10 min, followed by cool down to 4° C. […]
# DUX4 qPCR with nested primers was performed in a 10 μL reaction containing 1 μL of DUX4 pre amplification DNA, 5 μL of 2× IQ SYBR Mix, 0.4 μL of 10 μM TJ38F, 0.4 μL of 10 μM TJ41R, and 3.2 μL H2O. […] 10 seconds, then the plates were read on QuantStudio7 as per manufactures instruction (Thermo). […]
# Wild type myotubes were treated with DMSO control vehicle, and mature patient-derived FSHD myotubes that express DUX4 protein were treated with DMSO vehicle control or 1 μM of a DUX4 sequence-directed antisense oligonucleotide (ASO; FTX-2) purchased from Exiqon. After treatment, the myotubes were lysed in 19.5 μL of Roche Real Time Ready Lysis Buffer, 0.25 μL of DNAse1 (Ambion, AM2222), 0.25 μL of Protector RNase Inhibitor (Roche, 3335402001), and the RNA was collected in an RNeasy Micro Kit Master Mix. […]
compound,measurement,setting,value
"Cn1c(=O)c(Oc2ccc(F)cc2F)cc2cnc(NC(CCO)CCO)nc21 [FTX-839, Pamapimod]",impact to MYOG mRNA expression,myogenin (MYOG) mRNA,no impact
same,apoptosis (active caspase-3) across FSHD1 and FSHD2 lines,active Caspase-3,reduction
same,MBD3L2 mRNA in FSHD1 and FSHD2 primary patient myoblast lines,"[1]; 1 μM, to levels similar to healthy control lines",reduction
same,MBD3L2 mRNA levels normalized to POLR2A mRNA,"[1]; FSHD myotubes, 10, 100, and 1000 nM vs DMSO",dose-dependently reduced
same,MBD3L2 expression levels in four FSHD patient lines,"[1]; FTCE-016, -020, -197, -196 myotubes, 1 μM, to levels similar to healthy controls",reduced
COc1nccc(-c2c(-c3ccc(F)cc3)ncn2C2CCC(O)CC2)n1 (stereo not drawn) [SB239063],impact to MYOG mRNA expression,myogenin (MYOG) mRNA,no impact
CCc1nc(-c2cccc(C)c2)c(-c2ccnc(NC(=O)c3ccccc3)c2)s1 [TAK-715],impact to MYOG mRNA expression,myogenin (MYOG) mRNA,no impact
NC(=O)c1ccc(N(C(N)=O)c2c(F)cccc2F)nc1-c1ccc(F)cc1F [VX-702],impact to MYOG mRNA expression,myogenin (MYOG) mRNA,no impact
"FTX-2: DUX4 sequence-directed antisense oligonucleotide purchased from Exiqon, CAGCGTCGGAAGGTGG (SEQ ID NO:18) (listed as DNA, chemistry not given here)","expression of DUX4 downstream target genes ZSCAN4, TRIM43, MBD3L2, LEUTX, and KHDC1L vs DMSO",[2],reduced
same,DUX4 expression vs DMSO vehicle control,DUX4-fl mRNA; 1 μM ASO,reduced
same,"DUX4 expression, different dilutions",DUX4-fl mRNA; different dilutions of the ASO,dose dependent reduction
same,"MBD3L2 expression, different dilutions","[1]; FSHD myotubes, different dilutions of the ASO",dose dependent reduction
